Test [1] addresses T1, Carboxypeptidase A1 (Homo sapiens, UniProt P15085).
T1 sequence (P15085 whole entry): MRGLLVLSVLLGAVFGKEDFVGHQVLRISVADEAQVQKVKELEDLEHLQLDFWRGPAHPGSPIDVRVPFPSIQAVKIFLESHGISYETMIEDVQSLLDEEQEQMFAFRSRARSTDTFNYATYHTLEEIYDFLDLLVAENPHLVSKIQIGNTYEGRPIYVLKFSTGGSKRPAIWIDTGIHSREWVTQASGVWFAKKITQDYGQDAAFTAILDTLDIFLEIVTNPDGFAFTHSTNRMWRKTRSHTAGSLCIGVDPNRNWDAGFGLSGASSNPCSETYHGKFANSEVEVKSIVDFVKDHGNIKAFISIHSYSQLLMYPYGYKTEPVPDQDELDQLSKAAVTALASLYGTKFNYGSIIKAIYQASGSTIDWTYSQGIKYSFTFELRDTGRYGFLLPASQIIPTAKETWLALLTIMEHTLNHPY
Put plainly: Inhibition of carboxypeptidase A.

Test [2] deals with T2, Carboxypeptidase A1 (Homo sapiens) (UniProt P15085).
T2 sequence (whole entry): T1 sequence (P15085 whole entry)
Nature of the test: Inhibition of carboxypeptidase A at 10 ug/ml.

Activity calls are given as the source filed them. No cut-off for these calls is given here. Starred links: 1 amine or outer side, 2 acyl side, 3 side chain; linkers in the order of their positions; H or OH if unused. Positions of bridges follow the written chain, without caps; N, C: chain ends. Non-standard residues stand in square brackets, D forms with d. Residues, ends and D or L forms follow the SMILES beside them. NMehTyr = CN[C@@H](CCc1ccc(O)cc1)C(=O)O; hTyr = N[C@@H](CCc1ccc(O)cc1)C(=O)O; NMeA = CN[C@@H](C)C(=O)O; CO = O=C([*:1])[*:2]

Regarding `CC[C@H](C)[C@@H]1NC(=O)[C@H](NC(=O)N[C@@H](Cc2ccc(O)cc2)C(=O)O)CCCCNC(=O)[C@H]([C@@H](C)CC)NC(=O)[C@H](CCc2ccc(O)cc2)N(C)C(=O)[C@H](CCc2ccc(O)cc2)NC1=O` [ANABAENOPEPTIN G] ({Tyr-CO}-[dK]I[hTyr][NMehTyr]I; lactam 1-C), the midpoint of inhibition in test [1], the IC50, lay at 7.53 nM.
The molecule `CC[C@H](C)[C@H](NC(=O)N[C@@H]1CCCCNC(=O)[C@H]([C@@H](C)CC)NC(=O)[C@H](CCc2ccc(O)cc2)N(C)C(=O)[C@H](CCc2ccc(O)cc2)NC(=O)[C@H](C(C)C)NC1=O)C(=O)O` [ANABAENOPEPTIN T] ({Ile-CO}-[dK]V[hTyr][NMehTyr]I; lactam 1-C) gave an IC50 in test [1] of 25.4 nM.
Take `CC[C@H](C)[C@@H]1NC(=O)[C@H](NC(=O)N[C@@H](CCCNC(=N)N)C(=O)O)CCCCNC(=O)[C@H](Cc2ccccc2)NC(=O)[C@H](C)N(C)C(=O)[C@H](CCc2ccc(O)cc2)NC1=O` ({Arg-CO}-[dK]I[hTyr][NMeA]F; lactam 1-C): in test [2], the result was inactive.
Take `CC[C@H](C)[C@H](NC(=O)N[C@@H]1CCCCNC(=O)[C@H](Cc2ccccc2)NC(=O)[C@H](C)N(C)C(=O)[C@H](CCc2ccc(O)cc2)NC(=O)[C@H](C(C)C)NC1=O)C(=O)O` [ANABAENOPEPTIN J] ({Ile-CO}-[dK]V[hTyr][NMeA]F; lactam 1-C): the half-inhibitory concentration (IC50) in test [1] is 9.57 nM.
Same read-out and setting: with `CC[C@H](C)[C@H](NC(=O)N[C@@H]1CCCCNC(=O)[C@H](CC(C)C)NC(=O)[C@H](C)N(C)C(=O)[C@H](CCc2ccc(O)cc2)NC(=O)[C@H](C(C)C)NC1=O)C(=O)O` [ANABAENOPEPTIN I] ({Ile-CO}-[dK]V[hTyr][NMeA]L; lactam 1-C) the figure was 6.84 nM.
As to `CC(C)[C@@H]1NC(=O)[C@H](NC(=O)N[C@@H](CCCNC(=N)N)C(=O)O)CCCCNC(=O)[C@H](Cc2ccccc2)NC(=O)[C@H](C)N(C)C(=O)[C@H](CCc2ccc(O)cc2)N(C)C1=O`, the result in test [2] was inactive.
Regarding `CC[C@H](C)[C@@H]1NC(=O)[C@H](NC(=O)N[C@@H](CCCNC(=N)N)C(=O)O)CCCCNC(=O)[C@H]([C@@H](C)CC)NC(=O)[C@H](CCc2ccc(O)cc2)N(C)C(=O)[C@H](CCc2ccc(O)cc2)NC1=O` [ANABAENOPEPTIN H] ({Arg-CO}-[dK]I[hTyr][NMehTyr]I; lactam 1-C), in test [1], half-maximal inhibition (IC50) required 3680 nM.
Take `CC(C)[C@@H]1NC(=O)[C@H](NC(=O)N[C@@H](CCCNC(=N)N)C(=O)O)CCCCNC(=O)[C@H](Cc2ccccc2)NC(=O)[C@H](C)N(C)C(=O)[C@H](CCc2ccc(O)cc2)NC1=O` ({Arg-CO}-[dK]V[hTyr][NMeA]F; lactam 1-C): the result in test [2] was inactive.

The term IC50 denotes the concentration at which inhibition is half-maximal.

For the origin of these results see ChEMBL document CHEMBL1155591, “New anabaenopeptins, potent carboxypeptidase-A inhibitors from the cyanobacterium Aphanizomenon flos-aquae” (J Nat Prod, 2000).
